Patent publication US9149440B2, “Nanoparticles for drug-delivery” (UNIVERSITY OF SOUTH FLORIDA, priority 2003, dated 2015)
One block for each compound: values may come before it.

How the values were obtained:
Water solubility = assay type: physicochemical
C. albicans = assay: Antifungal agar well diffusion, zones of inhibition; assay type: cell-based; conditions: Candida albicans; 50 μg, 48 hours; read-out: zone of growth inhibition, standard
Method: (§1) Antifungal testing of these nanoparticles was performed by Kirby-Bauer disc diffusion on agar plates against eight genera of fungi.

C. utilis (ATCC 29950) = assay: as above; assay type: cell-based; conditions: Williopsis jadinii, ATCC29950; 50 μg, 48 hours; read-out: zone of growth inhibition, standard
Method: as §1

[1] = test system: C. lusitaniae (ATCC 34449); assay: as above; assay type: cell-based; conditions: Clavispora lusitaniae, ATCC34449; 50 μg, 48 hours; read-out: zone of growth inhibition, standard
Method: as §1

C. kefyr = assay: as above; assay type: cell-based; conditions: Kluyveromyces marxianus; 50 μg, 48 hours; read-out: zone of growth inhibition, standard
C. tropicalis = assay: as above; assay type: cell-based; conditions: Candida tropicalis; 50 μg, 48 hours; read-out: zone of growth inhibition, standard
[2] = test system: C. parapsilosis (ATCC 22019); assay: as above; assay type: cell-based; conditions: Lodderomyces parapsilosis, ATCC22019; 50 μg, 48 hours; read-out: zone of growth inhibition, standard
C. glabrata (ATCC 15126) = assay: as above; assay type: cell-based; conditions: Nakaseomyces glabratus, ATCC15126; 50 μg, 48 hours; read-out: zone of growth inhibition, standard
C. krusei (ATCC 14243) = assay: as above; assay type: cell-based; conditions: Pichia kudriavzevii, ATCC14243; 50 μg, 48 hours; read-out: zone of growth inhibition, standard

- water solubility (Water solubility): water-insoluble
SMILES: C=CC(=O)C1C(=O)N(SC)C1c1ccccc1Cl (racemic) [N-methylthiolated β-lactam, 3-acryloyl-N-methylthio-4-(2-chlorophenyl)-2-azetidinone]

- melting point: 66 to 68 °C
SMILES: C=CC(=O)OC(C)OC(=O)c1c2ccccc2cc2ccccc12 (stereo not shown)

SMILES: Clc1ccccc1C(c1ccccc1)(c1ccccc1)n1ccnc1 [clotrimazole]
- zone of inhibition at 50 µg/disc (C. albicans): 20 mm
- zone of inhibition at 50 µg/disc (C. utilis (ATCC 29950)): 24 mm
- zone of inhibition at 50 µg/disc [1]: 25 mm
- zone of inhibition at 50 µg/disc (C. kefyr): 37 mm
- zone of inhibition at 50 µg/disc (C. tropicalis): 20 mm
- zone of inhibition at 50 µg/disc [2]: 32 mm
- zone of inhibition at 50 µg/disc (C. glabrata (ATCC 15126)): 14 mm
- zone of inhibition at 50 µg/disc (C. krusei (ATCC 14243)): 27 mm
